The values that follow are results of earlier work, collected in patent EP4420767A1, “MODULAR GREEN SOLVENT COMPOSITION FOR PREPARING POLYMERIC MEMBRANES” (Soft Chemicals S.r.l., priority 2023, dated 2024).

For the data set the following is noted: DMSO alone.

SMILES strings stand for the structures.

For `C[S+](C)[O-]` [DMSO, Dimethyl sulfoxide], the freezing point is 18 °C.
